Series [1] concerns human class II OR identified in the library screening. Briefly: Confirmatory dose-response analysis of library-hit OR with cognate ligand, wild-type vs C-terminal domain SEQ ID NO: 221 (Table 17).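 As to all read-outs here: Wild-type receptor sequences expressed from the pcDNA3.1(+) vector and compared with the C-terminally modified receptors in dose-response tests using each receptor's cognate ligand.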 The settings on record: for Fold improvement efficacy: maximal induction; for Detection threshold; Fold improvement efficacy: under detection threshold; for EC50: read-out: Potency, EC50 changed C-term.
Experimental: (§1) Selected ligand—OR pairs were then tested in a confirmatory test with a dose response analysis.
(§2) For selected receptors, the wild-type sequence was synthesized and cloned into pcDNA3.1 (+). Dose-response analysis with the cognate ligand was then performed for both the wild-type and the modified sequence.

For series [2], the target named is human class II OR identified in the library screening (Homo sapiens, UniProt Q9Y4A9). The series is described as above. The settings on record: read-out: Potency, EC50 changed C-term; OR10H1, modified C-terminus SEQ ID NO: 221 (SEQ ID NO: 679).
Target sequence in this assay (Q9Y4A9 1-297): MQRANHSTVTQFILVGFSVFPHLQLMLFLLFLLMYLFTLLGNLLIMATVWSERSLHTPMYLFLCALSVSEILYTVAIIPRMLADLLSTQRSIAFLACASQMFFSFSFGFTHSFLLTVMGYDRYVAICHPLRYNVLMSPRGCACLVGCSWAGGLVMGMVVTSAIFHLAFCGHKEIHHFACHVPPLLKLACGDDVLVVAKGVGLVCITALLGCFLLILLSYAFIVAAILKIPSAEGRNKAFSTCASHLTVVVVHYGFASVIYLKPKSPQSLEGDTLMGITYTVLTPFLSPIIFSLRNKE
Experimental: as §1, §2
Series [3] concerns the target human class II OR identified in the library screening (Homo sapiens, UniProt Q8NGX5). The series is described as above. The conditions noted are these: read-out: Potency, EC50 changed C-term; OR10K1, modified C-terminus SEQ ID NO: 221 (SEQ ID NO: 687).
Target sequence in this assay (Q8NGX5 1-292): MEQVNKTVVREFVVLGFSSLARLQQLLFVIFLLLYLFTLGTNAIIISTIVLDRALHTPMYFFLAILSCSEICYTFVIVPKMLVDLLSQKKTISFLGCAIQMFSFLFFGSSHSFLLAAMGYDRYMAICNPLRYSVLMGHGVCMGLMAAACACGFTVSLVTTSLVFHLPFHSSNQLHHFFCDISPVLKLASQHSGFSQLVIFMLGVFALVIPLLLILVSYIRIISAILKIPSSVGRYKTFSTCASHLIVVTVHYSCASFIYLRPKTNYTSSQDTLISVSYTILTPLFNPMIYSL
Experimental: as §1, §2
For series [4], the target named is human class II OR identified in the library screening (Homo sapiens, UniProt Q9Y4A9).
Target sequence in this assay (Q9Y4A9 whole entry): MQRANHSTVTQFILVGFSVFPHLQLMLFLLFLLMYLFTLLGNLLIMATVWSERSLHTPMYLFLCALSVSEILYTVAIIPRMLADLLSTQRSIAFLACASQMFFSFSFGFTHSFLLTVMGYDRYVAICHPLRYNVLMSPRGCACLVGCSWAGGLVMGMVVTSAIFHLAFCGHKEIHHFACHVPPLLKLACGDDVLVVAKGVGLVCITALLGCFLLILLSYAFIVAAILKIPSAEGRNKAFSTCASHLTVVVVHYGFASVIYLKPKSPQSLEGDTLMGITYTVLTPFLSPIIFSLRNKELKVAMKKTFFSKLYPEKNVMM
Experimental: as §1, §2
Series [5] addresses human class II OR identified in the library screening (Homo sapiens, UniProt Q8NGX5).
Target sequence in this assay (Q8NGX5 whole entry, the tested form may be a part): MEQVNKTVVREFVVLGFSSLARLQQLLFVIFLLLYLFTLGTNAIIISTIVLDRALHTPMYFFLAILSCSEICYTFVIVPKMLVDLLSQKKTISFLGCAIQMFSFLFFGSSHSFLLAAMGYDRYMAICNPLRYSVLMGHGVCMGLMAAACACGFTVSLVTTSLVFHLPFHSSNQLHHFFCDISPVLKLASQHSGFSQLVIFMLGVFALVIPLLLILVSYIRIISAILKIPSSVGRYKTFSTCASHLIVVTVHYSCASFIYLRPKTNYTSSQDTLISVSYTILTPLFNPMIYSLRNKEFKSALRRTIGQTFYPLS
Experimental: as §1, §2
In series [6] the target is human class II OR identified in the library screening (Homo sapiens, UniProt Q8NG85). Briefly: Confirmatory dose-response analysis of library-hit OR with cognate ligand, wild-type vs C-terminal domain SEQ ID NO: 221 (Table 17).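 Also: Wild-type receptor sequences expressed from the pcDNA3.1(+) vector and compared with the C-terminally modified receptors in dose-response tests using each receptor's cognate ligand.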 The conditions noted are these: read-out: Potency, EC50 changed C-term; OR2L3, modified C-terminus SEQ ID NO: 221 (SEQ ID NO: 412).
Target sequence in this assay (Q8NG85 1-296): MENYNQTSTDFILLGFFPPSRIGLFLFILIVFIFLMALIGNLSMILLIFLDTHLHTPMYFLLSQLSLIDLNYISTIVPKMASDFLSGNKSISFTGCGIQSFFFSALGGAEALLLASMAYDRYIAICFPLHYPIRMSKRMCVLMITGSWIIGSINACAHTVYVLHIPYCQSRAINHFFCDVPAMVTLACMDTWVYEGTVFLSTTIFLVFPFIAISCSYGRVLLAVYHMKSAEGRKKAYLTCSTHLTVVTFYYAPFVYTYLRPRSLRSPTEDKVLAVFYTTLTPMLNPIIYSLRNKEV
Experimental: as §1, §2
For series [7], the target named is human class II OR identified in the library screening (Homo sapiens, UniProt Q8NG80). The series is described as above. The conditions noted are these: read-out: Potency, EC50 changed C-term; OR2L5, modified C-terminus SEQ ID NO: 221 (SEQ ID NO: 413).
Target sequence in this assay (Q8NG80 1-296): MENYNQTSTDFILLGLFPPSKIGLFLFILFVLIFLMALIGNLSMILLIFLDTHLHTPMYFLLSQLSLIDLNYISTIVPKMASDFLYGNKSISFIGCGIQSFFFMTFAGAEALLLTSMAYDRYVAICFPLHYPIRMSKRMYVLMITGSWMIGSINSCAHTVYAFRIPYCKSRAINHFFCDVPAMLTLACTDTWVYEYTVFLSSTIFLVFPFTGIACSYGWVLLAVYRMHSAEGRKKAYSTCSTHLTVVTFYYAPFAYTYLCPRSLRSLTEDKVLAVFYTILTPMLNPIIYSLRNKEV
Experimental: as §1, §2
In series [8] the target is human class II OR identified in the library screening (Homo sapiens, UniProt Q8NG85).
Target sequence in this assay (Q8NG85 whole entry, the tested form may be a part): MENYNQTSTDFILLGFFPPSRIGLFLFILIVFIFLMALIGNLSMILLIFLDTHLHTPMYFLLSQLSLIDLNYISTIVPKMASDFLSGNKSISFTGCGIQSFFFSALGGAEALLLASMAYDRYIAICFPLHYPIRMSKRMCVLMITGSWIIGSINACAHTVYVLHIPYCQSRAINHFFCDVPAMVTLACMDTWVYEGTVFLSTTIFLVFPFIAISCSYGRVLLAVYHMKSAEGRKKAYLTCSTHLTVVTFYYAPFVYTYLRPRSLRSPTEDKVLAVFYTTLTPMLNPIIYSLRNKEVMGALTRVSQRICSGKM
Experimental: as §1, §2
For series [9], the target named is human class II OR identified in the library screening (Homo sapiens, UniProt Q8NG80).
Target sequence in this assay (Q8NG80 whole entry, the tested form may be a part): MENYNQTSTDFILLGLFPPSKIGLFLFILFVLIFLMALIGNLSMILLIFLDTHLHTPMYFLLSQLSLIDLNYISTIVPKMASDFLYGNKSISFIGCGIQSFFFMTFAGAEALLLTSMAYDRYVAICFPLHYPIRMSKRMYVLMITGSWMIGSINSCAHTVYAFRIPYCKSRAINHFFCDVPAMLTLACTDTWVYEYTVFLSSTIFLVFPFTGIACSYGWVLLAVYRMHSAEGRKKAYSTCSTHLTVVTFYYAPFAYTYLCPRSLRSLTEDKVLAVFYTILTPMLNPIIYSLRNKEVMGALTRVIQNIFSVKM
Experimental: as §1, §2
Series [10] concerns the target human class II OR identified in the library screening (Homo sapiens, UniProt Q9GZK7). Briefly: Confirmatory dose-response analysis of library-hit OR with cognate ligand, wild-type vs C-terminal domain SEQ ID NO: 221 (Table 17).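 Also: Wild-type receptor sequences expressed from the pcDNA3.1(+) vector and compared with the C-terminally modified receptors in dose-response tests using each receptor's cognate ligand.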 The settings on record: read-out: Potency, EC50 changed C-term; OR11A1, modified C-terminus SEQ ID NO: 221 (SEQ ID NO: 702).
Target sequence in this assay (Q9GZK7 1-298): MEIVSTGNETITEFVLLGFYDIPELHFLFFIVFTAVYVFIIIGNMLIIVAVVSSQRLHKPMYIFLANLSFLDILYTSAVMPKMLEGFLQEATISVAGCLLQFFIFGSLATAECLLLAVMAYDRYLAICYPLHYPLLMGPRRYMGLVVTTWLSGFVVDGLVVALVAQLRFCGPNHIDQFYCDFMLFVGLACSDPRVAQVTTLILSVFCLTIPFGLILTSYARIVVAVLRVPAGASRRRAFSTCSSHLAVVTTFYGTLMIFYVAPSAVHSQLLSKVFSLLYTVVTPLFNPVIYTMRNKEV
Experimental: as §1, §2
For series [11] the target is unchanged. Described as above.
Target sequence in this assay (Q9GZK7 whole entry, the tested form may be a part): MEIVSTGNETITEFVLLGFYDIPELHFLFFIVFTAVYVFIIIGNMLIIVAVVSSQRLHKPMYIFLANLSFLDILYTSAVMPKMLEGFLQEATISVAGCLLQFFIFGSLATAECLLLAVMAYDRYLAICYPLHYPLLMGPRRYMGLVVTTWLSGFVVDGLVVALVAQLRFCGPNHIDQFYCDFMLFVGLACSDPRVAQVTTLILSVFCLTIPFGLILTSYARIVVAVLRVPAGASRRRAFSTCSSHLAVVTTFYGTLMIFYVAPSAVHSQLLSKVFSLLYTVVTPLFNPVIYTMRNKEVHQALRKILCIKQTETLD
Experimental: as §1, §2
In series [12] the target is human class II OR identified in the library screening (Homo sapiens, UniProt Q8NGG4).
Experimental: as §1, §2
For series [13], the system named is human class II OR identified in the library screening.
Experimental: as §1, §2
Series [14] deals with human class II OR identified in the library screening (Homo sapiens, UniProt Q8NGN4). Briefly: Confirmatory dose-response analysis of library-hit OR with cognate ligand, wild-type vs C-terminal domain SEQ ID NO: 221 (Table 17).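 Also: Wild-type receptor sequences expressed from the pcDNA3.1(+) vector and compared with the C-terminally modified receptors in dose-response tests using each receptor's cognate ligand.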 The settings on record: OR10G9, wild-type sequence.
Experimental: as §1, §2
Where [15] appears, read: OR10K1, modified C-terminus SEQ ID NO: 221 vs wild-type.
[16] abbreviates: OR2L5, modified C-terminus SEQ ID NO: 221 vs wild-type.
Setting [17] is: OR8H1, modified C-terminus SEQ ID NO: 221 vs wild-type.
[18] abbreviates: OR10G9, modified C-terminus SEQ ID NO: 221 (SEQ ID NO: 678).
The mark [19] stands for this setting: OR10G9, modified C-terminus SEQ ID NO: 221 vs wild-type.

Read-outs that look alike come from different tables or passages of the source.

Chain of human class II OR identified in the library screening (Homo sapiens, UniProt Q8NGG4) (Q8NGG4 whole entry): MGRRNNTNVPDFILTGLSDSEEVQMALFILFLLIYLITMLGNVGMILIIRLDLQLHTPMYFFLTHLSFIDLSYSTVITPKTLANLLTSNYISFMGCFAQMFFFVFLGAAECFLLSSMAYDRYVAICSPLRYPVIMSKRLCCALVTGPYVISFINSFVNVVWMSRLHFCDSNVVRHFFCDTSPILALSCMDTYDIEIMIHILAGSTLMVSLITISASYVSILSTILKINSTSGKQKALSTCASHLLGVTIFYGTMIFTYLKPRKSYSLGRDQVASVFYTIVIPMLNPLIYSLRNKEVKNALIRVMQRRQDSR
Chain of human class II OR identified in the library screening (Homo sapiens, UniProt Q8NGN4) (Q8NGN4 whole entry, the tested form may be a part): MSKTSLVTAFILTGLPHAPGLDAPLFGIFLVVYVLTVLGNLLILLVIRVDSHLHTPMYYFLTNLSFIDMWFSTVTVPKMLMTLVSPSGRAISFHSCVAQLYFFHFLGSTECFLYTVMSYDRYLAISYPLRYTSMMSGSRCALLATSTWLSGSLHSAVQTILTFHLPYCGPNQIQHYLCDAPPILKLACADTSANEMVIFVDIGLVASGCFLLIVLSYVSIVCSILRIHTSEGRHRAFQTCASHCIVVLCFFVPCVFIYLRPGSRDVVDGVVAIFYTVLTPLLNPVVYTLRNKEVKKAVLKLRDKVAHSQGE

For `CC(C)CCc1ccc2c(c1)OCC(=O)CO2` [7-(3-Methylbutyl)-benzo[b][1,4]dioxepin-3-one], the Fold improvement efficacy in series [1] (OR10H1, modified C-terminus SEQ ID NO: 221 vs wild-type) is recorded as 10.0 fold; in series [1] (setting [15]) it was 12.4 fold. Besides, in [1] (OR10K1, EC50 modified C-terminus SEQ ID NO: 221 vs wild-type), the “Potency, Fold-improvement” value amounted to 3.1 fold. In addition, the “Detection threshold; Fold improvement efficacy” value in series [1] (setting [15]) is recorded as 63.4 fold. Further, the concentration for a half-maximal effect (EC50) in series [2] turned out to be 7 µM; in [3] it was 2.2 µM. Also, the figures for the “Detection threshold; concentration for 2-fold induction, wild-type” value in series [4] and in series [5] were “no” and 9.4 µM, respectively.
For the compound `CCOC(=O)C1CCCCC1` [Ethyl cyclohexanecarboxylate], the EC50 in [6] was 86.2 µM; in [7], 4.76 µM. In addition, the Fold improvement efficacy in series [1] (OR2L3, modified C-terminus SEQ ID NO: 221 vs wild-type) stood at 17.1 fold; in series [1] (setting [16]), 2.6 fold. The “Potency, Fold-improvement” value in [1] (OR2L5, EC50 modified C-terminus SEQ ID NO: 221 vs wild-type) amounted to 24.1 fold. Besides, the “Detection threshold; Fold improvement efficacy” value in [1] (setting [16]) stood at 158.8 fold. Moreover, the “Detection threshold; concentration for 2-fold induction, wild-type” value in [8] is “no”; in series [9] it was 40.5 µM.
Take `CC1CCCC2(C)CCCCC12O` (stereo not drawn) [Geosmin]: the EC50 in series [10] is 2.2 µM; in series [11] it was 6.8 µM.
As to `N#CC(=C1CCCCC1)c1ccccc1` [Peonile], in series [1] (OR8H1, EC50 modified C-terminus SEQ ID NO: 221 vs wild-type), the “Potency, Fold-improvement” value was found to be 2.95 fold. For the same compound, in [1] (setting [17]), the Fold improvement efficacy is recorded as 4.2 fold and the “Detection threshold; Fold improvement efficacy” value is 15.6 fold. The EC50 in series [1] (OR8H1, modified C-terminus SEQ ID NO: 221 (SEQ ID NO: 637)) was 5.8 µM. For the same compound, the “Detection threshold; concentration for 2-fold induction, wild-type” value in [12] is 6.9 µM. In series [13], the “Detection threshold; concentration for 2-fold induction, changed C-term.” value amounted to 0.4 µM.
As to `CCOc1cc(C)ccc1O` [Ultravanil], in series [14], the “Detection threshold; concentration for 2-fold induction, wild-type” value is 14.6 µM. Also, the “Potency, Fold-improvement” value in [1] (OR10G9, EC50 modified C-terminus SEQ ID NO: 221 vs wild-type) is 4.8 fold. Also, in [1] (setting [18]), the “Detection threshold; concentration for 2-fold induction, changed C-term.” value turned out to be 1.7 µM and the EC50 came out at 19 µM. Moreover, in series [1] (setting [19]), the Fold improvement efficacy came to 3.4 fold and the “Detection threshold; Fold improvement efficacy” value came to 8.62 fold.

In general, EC50 refers to the midpoint of the concentration-response curve.

For the origin of these results see patent publication US20260210939A1, “MODIFIED OLFACTORY RECEPTORS” (GIVAUDAN SA, priority 2022, published 2026).
